Experiments:
Test in all cases: relative viability (nuclei count vs DMSO), 5 days (fraction); higher = more cells survive
[1] = compound: CCN1CCC(CC1)N2C=C(N=N2)CNC3=CC4=C(C(=CN=C4C(=C3)Cl)C#N)NC5=CC(=C(C=C5)F)Cl [KIN001-266]
Outline: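 Nuclei counted with MetaXpress define viability as the ratio of treated to vehicle wells, given as a median across plates. The lung cancer cell lines were in 1536-well plates, pinned with five √10-spaced library-drug doses and imaged at 4× after 5 days and Hoechst staining. Plates passed with control CV below 25% and at least one doubling.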

[2] = compound: CCN1CCC(CC1)N2C=C(N=N2)CNC3=CC4=C(C(=CN=C4C(=C3)Cl)C#N)NC5=CC(=C(C=C5)F)Cl [KIN001-266] + Cc1cc(Nc2cc(N3CCN(C)CC3)nc(Sc3ccc(NC(=O)C4CC4)cc3)n2)n[nH]1 [Tozasertib] (partner 0.1 µM)
Outline: (§1)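 Lung cancer cell lines in 1536-well plates were dosed by pin tool the day after seeding, either with one drug alone or with a fixed anchor-drug dose plus five library-drug doses (not always all listed) in √10 steps. After 5 days, cells were fixed and their nuclei stained in one step (final 0.05% Triton X-100, 1% formaldehyde, 1 ug/ml Hoechst), then counted on 4× images. Relative viability is the nuclei count in treated wells divided by that in vehicle wells. Values are medians of duplicate plates.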

[3] = compound: CCN1CCC(CC1)N2C=C(N=N2)CNC3=CC4=C(C(=CN=C4C(=C3)Cl)C#N)NC5=CC(=C(C=C5)F)Cl [KIN001-266] + CC1(C)CCC(c2ccc(Cl)cc2)=C(CN2CCN(c3ccc(C(=O)NS(=O)(=O)c4ccc(N[C@H](CCN5CCOCC5)CSc5ccccc5)c(S(=O)(=O)C(F)(F)F)c4)cc3)CC2)C1 [Navitoclax] (partner 0.5 µM)
Outline: as §1

[4] = compound: CCN1CCC(CC1)N2C=C(N=N2)CNC3=CC4=C(C(=CN=C4C(=C3)Cl)C#N)NC5=CC(=C(C=C5)F)Cl [KIN001-266] + N=C(N)NC(=N)NCCc1ccccc1 [Phenformin] (partner 250 µM)
Outline: as §1

| Cell Line | relative viability ([1]; 0.08 µM) | relative viability ([1]; 0.253 µM) | relative viability ([1]; 0.8 µM) | relative viability ([1]; 2.53 µM) | relative viability ([1]; 8 µM) | relative viability ([2]; first compound 0.08 µM) | relative viability ([2]; first compound 0.253 µM) | relative viability ([2]; first compound 0.8 µM) | relative viability ([2]; first compound 2.53 µM) | relative viability ([2]; first compound 8 µM) | relative viability ([3]; first compound 0.08 µM) | relative viability ([3]; first compound 0.253 µM) | relative viability ([3]; first compound 0.8 µM) | relative viability ([3]; first compound 2.53 µM) | relative viability ([3]; first compound 8 µM) | relative viability ([4]; first compound 0.08 µM) | relative viability ([4]; first compound 0.253 µM) | relative viability ([4]; first compound 0.8 µM) | relative viability ([4]; first compound 2.53 µM) | relative viability ([4]; first compound 8 µM) |
| --- | --- | --- | --- | --- | --- | --- | --- | --- | --- | --- | --- | --- | --- | --- | --- | --- | --- | --- | --- | --- |
| NCI-H1437 | 0.976 | 0.988 | 1.02 | 0.994 | 0.883 | 0.425 | 0.366 | 0.393 | 0.38 | 0.264 | 1.09 | 1.11 | 1.08 | 1.12 | 0.911 | 0.346 | 0.272 | 0.286 | 0.291 | 0.251 |
| NCI-H1650 | 0.964 | 1.01 | 0.895 | 0.805 | 0.464 | 0.564 | 0.406 | 0.372 | 0.263 | 0.162 | 1.09 | 1.1 | 1.23 | 1.15 | 0.985 | 0.479 | 0.448 | 0.326 | 0.261 | 0.305 |
| NCI-H1651 | 0.955 | 1.01 | 0.957 | 1.01 | 0.96 | 0.782 | 0.591 | 0.51 | 0.78 | 0.396 | 0.954 | 1.04 | 1.1 | 0.949 | 1.05 | 0.355 | 0.383 | 0.316 | 0.508 | 0.325 |
| NCI-H1666 | 1.07 | 1 | 0.896 | 0.99 | 0.959 | 0.586 | 0.642 | 0.605 | 0.572 | 0.486 | 1.06 | 0.983 | 0.852 | 0.91 | 0.847 | 0.547 | 0.627 | 0.573 | 0.581 | 0.574 |
| NCI-H1734 | 1.01 | 1.01 | 1.08 | 0.858 | 0.855 | 0.256 | 0.295 | 0.279 | 0.232 | 0.243 | 0.789 | 0.839 | 0.612 | 0.808 | 0.61 | 0.416 | 0.387 | 0.405 | 0.357 | 0.321 |
| NCI-H1755 | 0.968 | 0.994 | 0.995 | 0.975 | 0.96 | 0.629 | 0.541 | 0.583 | 0.525 | 0.522 | 1.01 | 0.985 | 0.981 | 0.992 | 0.799 | 0.643 | 0.62 | 0.625 | 0.621 | 0.549 |
| NCI-H1793 | 1.04 | 0.865 | 0.617 | 0.787 | 0.606 | 0.325 | 0.416 | 0.303 | 0.323 | 0.272 | 0.516 | 0.491 | 0.401 | 0.388 | 0.429 | 0.418 | 0.324 | 0.25 | 0.352 | 0.251 |
| NCI-H1915 | 1.02 | 0.971 | 0.982 | 1.07 | 0.935 | 0.447 | 0.418 | 0.396 | 0.422 | 0.369 | 0.766 | 0.79 | 0.74 | 0.758 | 0.742 | 0.365 | 0.379 | 0.354 | 0.379 | 0.36 |
| NCI-H1944 | 1.07 | 0.972 | 0.919 | 1.02 | 0.974 | 0.25 | 0.264 | 0.241 | 0.235 | 0.254 | 1.03 | 1.05 | 0.991 | 1.04 | 1.04 | 0.208 | 0.194 | 0.186 | 0.199 | 0.164 |
| NCI-H1975 | 0.989 | 0.97 | 0.966 | 1.03 | 0.965 | 0.821 | 0.776 | 0.762 | 0.699 | 0.505 | 1.16 | 1.04 | 1.13 | 1.11 | 1.09 | 0.416 | 0.402 | 0.431 | 0.422 | 0.36 |
| NCI-H1993 | 0.971 | 0.916 | 0.815 | 0.81 | 0.724 | 0.596 | 0.563 | 0.574 | 0.567 | 0.553 | 1.15 | 0.96 | 0.855 | 0.731 | 0.681 | 0.505 | 0.493 | 0.506 | 0.49 | 0.575 |
| NCI-H2009 | 0.988 | 1.06 | 1 | 0.982 | 0.856 | 0.788 | 0.704 | 0.808 | 0.674 | 0.386 | 1.14 | 1.13 | 1.16 | 1.07 | 1.1 | 0.455 | 0.432 | 0.441 | 0.319 | 0.262 |
| NCI-H2023 | 0.915 | 0.997 | 1.15 | 0.926 | 0.94 | 0.39 | 0.341 | 0.419 | 0.292 | 0.184 | 0.956 | 1 | 1.08 | 0.93 | 1.05 | 0.378 | 0.391 | 0.401 | 0.304 | 0.28 |
| NCI-H2085 | 1 | 1.04 | 0.865 | 0.973 | 0.777 | 0.911 | 0.858 | 0.83 | 0.793 | 0.765 | 1.15 | 1.25 | 1.08 | 1.13 | 0.906 | 0.855 | 0.741 | 0.663 | 0.669 | 0.632 |
| NCI-H2087 | 0.957 | 1.03 | 0.94 | 1.06 | 0.786 | 0.206 | 0.246 | 0.23 | 0.175 | 0.155 | 1.17 | 0.93 | 0.916 | 0.97 | 0.56 | 0.439 | 0.467 | 0.38 | 0.352 | 0.234 |

— the supplement of paper PMC10307832
